# Experimental data as given in patent US20010011146A1, “NEUROPROTECTIVE COMPOUNDS AND USES THEREOF” (priority 1997, published 2001).
# “Also recorded” adds a separate entry of the source. Where two headings read alike, the source gives them in different places.
# How the values were obtained:
# [1] = Body temperature recording during cerebral reperfusion (4-VO ischemic animals); assay type: in vivo, male Wister rats; settings: for Temperature recording during cerebral reperfusion: mean ± s.e.m., in °C (unit assumed)
# Text: (§1) Four-vessel occlusion (“4-VO”) ischemia. All procedures regarding animals were in compliance with AALAC guidelines set forth in the PHS animal “Guide in the Care and Use of Laboratory Animals”. Animals (male Wister rats, 200-250 gr, Hill Top, Scottsdale) were anesthetized with a mixture of halothane (1%), oxygen, and nitrogen, and surgically prepared for 4-VO according to the method described by Pulsinell, W. A., et al., “Regional Cerebral Blood Flow and Glucose Metabolism Following Transient Forebrain Ischemia,” Ann. Neurol., 11:499-502 (1982), which is hereby incorporated by reference. Surgical procedures included placing reversible clasps around the common carotid arteries and placing a suture around the neck muscles to control collateral blood flow to the brain. Food was withheld overnight, but water was freely available. On the following day, 10 minutes of 4-VO ischemia was induced by tightening the clasps around the common carotid arteries and the suture. In order to minimize variability, the following criteria was set: loss of righting reflex and bilateral pupil dilation during the entire ischemic period, and 20±5 minutes of postischemic coma after 10 minutes of ischemia. Only animals that meet these criteria were included in the study. The body temperature of all animals was kept at 37.5±0.5° C. by a thermocouple-regulated heating lamp during ischemia and reperfusion until the animals regained consciousness and established thermo-homeostasis.
# (§2) NAMDA administration. Animals subject to 10 minutes of ischemia randomly were divided into 4 groups. Animals received one of the following triple intraperitoneal injections: i) saline at 0, 0.5, and 2 hours, ii) NAMDA (10 mg/kg) at 0, 0.5, and 2 hours, iii) NAMDA at 1, 1.5, and 3 hours, and iv) NAMDA at 2, 2.5, and 4 hours of cerebral reperfusion. To examine whether NAMDA caused hypothermia, the animals' body temperatures were recorded for up to the first 4 hours of cerebral reperfusion. Sham-operated animals that underwent surgery and carotid manipulation were used as non-ischemic controls.
# The animals' body temperature was kept at 37.5±0.5° C. during ischemia and first half hour of cerebral reperfusion when animals were typically stayed in postischemic coma. Temperatures were recorded soon after animals regained consciousness and recorded for up to 4 hours of cerebral reperfusion (Table 1).
# [2] = test system: BV-2 cells; experiment: Cell number count by tryphan exclusion in BV-2 cells; assay type: cell-based, murine; settings: with or without LPS; end of 6 hours treatment; up to 5 mM
# [3] = test system: BV-2 microglia cells; experiment: Nitrite measurement (Griess reaction) in BV-2 microglia cells; assay type: cell-based, murine; settings: 6 hours, 0.05-5 mM
# Method: Nitrite measurement on microylial cell. To measure nitrite level, a NO oxidative metabolite, murine BV-2 cells, were used. […] The cells were grown and maintained in Dulbeccos Modified Eagle medium (“DMEM”, Gibco, Gaithersburg, Md.) supplemented with 10% fetal calf serum and penicillin/streptomycine at 37° C. in a humidified incubator under 5% CO2. BV-2 microglia cells were cultured and grown in 24 well culture plates and treated for 6 hours with 0. 0.05, 0.5, 2, or 5 mM or NAMDA either in the presence or absence of lipopolysaccharide (LPS, 0.2 μg/ml).
# After the treatment, 200 μl aliquots of cell supernatant from each well were mixed with 100 μl of Griess reagent (1 % sulphanilamide, 0.1% naphthylethylenediamine dihydrochloride, 2.5% H3PO4) in 96 well microtiter plates. The mixtures were incubated for 10 minutes to form a chromophore and the absorbance was read at 540 nm using a plate reader. The amount of nitrite accumulation from media was determined against a standard curve generated by a known concentration of […]. After removal of the supernatant for the nitrite assay, cells were immediately washed with 0.1M PB, fixed with 4% formaldehyde for 30 minutes, and washed with 0.1M PB for 5 minutes. NADPH-diaphorase histochemical staining was performed as described above. […]
# [4] = test system: NADPH-diaphorase activity in BV-2 cells; experiment: NADPH-diaphorase histochemical staining in BV-2 cells; assay type: cell-based, murine; settings: 5 mM
# Method: NADPH-Diaphorase histochemistry. The histochemical staining was performed according to the method described by Vincent, et al., “Histochemical Mapping of Nitric Oxide Synthase in the Rat Brain,” Neuroscience, 46:755-784 (1992), which is hereby incorporated by reference). Sections containing dorsal hippocampus are washed twice in 0.1 M phosphate buffer (“PB”) and then processed for NADPH-diaphorase histochemistry. To establish a temporal profile of NADPH-diaphorase staining during postischemic period, sections were obtained from animals that were perfuse fixed at 12 hours, 24 hours, 48 hours, 72 hours, and 7 days after ischemia. The sections were then incubated for 1 hour at 37° C. with a solution containing 1 mg/ml of NADPH, 0.25 mg/ml of nitro blue tetrazolium (“NBT”), and 0.3% Triton X-100 in 0.1 M PB. The reaction was terminated by the addition of cold 0.1M PB. […]
# After the treatment, 200 μl aliquots of cell supernatant from each well were mixed with 100 μl of Griess reagent (1 % sulphanilamide, 0.1% naphthylethylenediamine dihydrochloride, 2.5% H3PO4) in 96 well microtiter plates. The mixtures were incubated for 10 minutes to form a chromophore and the absorbance was read at 540 nm using a plate reader. The amount of nitrite accumulation from media was determined against a standard curve generated by a known concentration of NaNO3. […]
# [5] = test system: NADPH-diaphorase activity in CA1 hippocampus; experiment: NADPH-diaphorase histochemistry in postischemic CA1 hippocampus; assay type: in vivo, male Wister rats; settings: triple i.p. injection 10 mg/kg during reperfusion
# Method: as §2
# Tissue preparation. Animals were anesthetized with sodium pentobarbital (120 mg/kg) and perfused transcardially with saline containing 0.5% sodium nitrite and 10 U/ml heparin sulfate followed by 4% cold formaldehyde in 0.1 M sodium phosphate buffer (PB, pH 7.2). The brains were further postfixed for 2 hours and stored in a 30% sucrose solution overnight. Fixed brains were sectioned at 30 μm on a sliding microtome. For each animal, the dorsal hippocampus between bregma −2.5 mm and −4.0 mm was sampled. Some sections were […] on slides and stained with cresyl violet to measure neuronal density. Others were used for free floating NADPH-diaphorase histochemistry.
# NADPH-Diaphorase histochemistry. […]
# [6] = test system: CA1 hippocampal neurons; experiment: Four-vessel occlusion (4-VO) ischemia, CA1 neuronal density measurement; assay type: in vivo, male Wister rats
# Text: as §1, §2
# Tissue preparation. […] Some sections were […] on slides and stained with cresyl violet to measure neuronal density. […]
# Cell density measurement. […] Neurons were counted in the frame if part or all of the nucleus was within the frame and not in contact with the left or bottom border of the frame. […] The number of neurons counted were divided by the total volume sampled to generate the density of neurons in CA1. Mean neuron density was calculated for the left and right hippocampus (side) and for the anterior and posterior regions for each animal. […]
# [7] = test system: CA1 hippocampal neurons; settings: Cho et al. 1997, cited from earlier work
# [8] = background statement; cited from earlier work
smiles,measurement,setting,value
"COc1cc(CCNC(C)=O)ccc1O [NAMDA, N-acetyl-3-O-methyldopamine]",Effect on body temperature versus saline-treated ischemic group,"[1]; 10 mg/kg triple i.p., any time point up to 4 hours of reperfusion, ANOVA, Newman-Keuls",no differences in body temperatures
same,Temperature recording during cerebral reperfusion,"[1]; NC-111 (0, 0.5, 2 h), n = 9, postischemic time 1 hour",37.6 ± 0.2
same,Temperature recording during cerebral reperfusion,"[1]; NC-111 (0, 0.5, 2 h), n = 9, postischemic time 1.5 hour",37.3 ± 0.1
same,Temperature recording during cerebral reperfusion,"[1]; NC-111 (0, 0.5, 2 h), n = 9, postischemic time 2 hour",37.3 ± 0.1
same,Temperature recording during cerebral reperfusion,"[1]; NC-111 (0, 0.5, 2 h), n = 9, postischemic time 3 hour",37.5 ± 0.2
same,Temperature recording during cerebral reperfusion,"[1]; NC-111 (0, 0.5, 2 h), n = 9, postischemic time 4 hour",37.2 ± 0.1
same,Temperature recording during cerebral reperfusion,"[1]; NC-111 (1 h) group (injections at 1, 1.5, 3 h), n = 7, postischemic time 0.5 hour",37.9 ± 0.2
same,Temperature recording during cerebral reperfusion,"[1]; NC-111 (1 h) group, n = 7, postischemic time 1 hour",36.9 ± 0.1
same,Temperature recording during cerebral reperfusion,"[1]; NC-111 (1 h) group, n = 7, postischemic time 1.5 hour",37.0 ± 0.1
same,Temperature recording during cerebral reperfusion,"[1]; NC-111 (1 h) group, n = 7, postischemic time 2 hour",37.4 ± 0.1
same,Temperature recording during cerebral reperfusion,"[1]; NC-111 (1 h) group, n = 7, postischemic time 3 hour",37.5 ± 0.2
same,Temperature recording during cerebral reperfusion,"[1]; NC-111 (1 h) group, n = 7, postischemic time 4 hour",37.5 ± 0.3
same,Temperature recording during cerebral reperfusion,"[1]; NC-111 (2 hr) group (injections at 2, 2.5, 4 h), n = 6, postischemic time 0.5 hour",38.3 ± 0.2
same,Temperature recording during cerebral reperfusion,"[1]; NC-111 (2 hr) group, n = 6, postischemic time 1 hour",36.8 ± 0.3
same,Temperature recording during cerebral reperfusion,"[1]; NC-111 (2 hr) group, n = 6, postischemic time 1.5 hour",37.2 ± 0.4
same,Temperature recording during cerebral reperfusion,"[1]; NC-111 (2 hr) group, n = 6, postischemic time 2 hour",37.4 ± 0.2
same,Temperature recording during cerebral reperfusion,"[1]; NC-111 (2 hr) group, n = 6, postischemic time 3 hour",37.3 ± 0.2
same,Temperature recording during cerebral reperfusion,"[1]; NC-111 (2 hr) group, n = 6, postischemic time 4 hour",37.9 ± 0.3
same,Temperature recording during cerebral reperfusion,"[1]; NC-111 (injections at 0, 0.5, 2 h of reperfusion), n = 9, postischemic time 0.5 hour",37.7 ± 0.2
same,Total number of cells (cell viability),[2],did not affect the total number of cells
same,Nitrite accumulation in cell supernatant,[3]; absence of LPS,did not alter nitrite accumulation
same,Nitrite accumulation in cell supernatant,"[3]; presence of LPS 0.2 μg/ml, ANOVA p<0.001",significantly reduced nitrite accumulation in a dose-dependent manner
same,Baseline NADPH-diaphorase staining intensity,[4]; absence of LPS,not affected
same,LPS-induced NADPH-diaphorase activity (staining),[4]; presence of LPS,attenuated
same,Ischemia-induced NADPH-diaphorase staining in CA1,[5]; 24 hours postischemic,markedly reduced
same,Ischemia-induced NADPH-diaphorase staining in CA1,[5]; 48 hours after ischemia,attenuation of the staining was persisted
same,CA1 neuronal density / protection of CA1 neurons (of non-ischemic control),"[6]; 10 min 4-VO ischemia, 10 mg/kg i.p. at 0, 0.5, 2 h (immediately after reperfusion), measured one week later",45%
same,Protection of neurons in CA1 hippocampus,"[6]; 10 min 4-VO ischemia, NAMDA treatment versus saline, one week later, Fisher's PLSD p<0.0001",significantly protected neurons in CA1 hippocampus
same,Neuron density in CA1 at 24 hours postischemic,"[6]; 10 min ischemia, NAMDA-ischemic n=3, 24 hours postischemic",18.3±2.2 neurons/10^5 μm^3
same,Protection of CA1 neurons with delayed administration,"[6]; administration delayed up to 2 hours after ischemia, one week later",protect CA1 neurons despite delaying the treatment up to 2 hours; also recorded: significant protection of CA1 neurons
"COc1ccc2[nH]cc(CCNC(C)=O)c2c1 [melatonin, Melatonin]",Protection of CA1 neurons,"[7]; administration starting immediately after / during reperfusion, 10 min transient forebrain ischemia",significantly protect CA1 neurons; also recorded: protects the CA1 hippocampal neurons
same,Protection of CA1 neurons with delayed administration,[7]; delay of one hour,did not offer significant protection
same,Protection of the neurons with delayed administration,[7]; delay of one to two hours in administration,significantly decreased protection of the neurons
same,Solubility in aqueous media,[8],insoluble in aqueous media
